For this experiment, the target named is IgE-Tb / FcεRIα-Y131A-AF488 (Homo sapiens, UniProt P01854). In words: IgE-Tb / FcεRIα-Y131A-AF488 FRET assay (protocol for examples 1 to 233). Type of experiment: binding. The settings on record: examples 1 to 233: 5 nM IgE-Tb, 25 nM FcεRIα-Y131A-AF488, incubated 2 hours at room temperature; read-out: Y131A FRET IC50 range. Put shortly:
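TR-FRET displacement with 5 nM IgE-Tb and 25 nM FcεRIα-Y131A-AF488 (final), 10-point 3-fold compound dilutions from typically 10 μM top, 2% DMSO, 2 h at room temperature. Excitation 330 nm, 520/495 nm emission ratio; MIN set with 200 nM unlabelled FcεRIα. IC50 from four-parameter logistic fit of percent inhibition.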

IgE-Tb / FcεRIα-Y131A-AF488, sequence (P01854 1-427 limits assumed, stated change not applied): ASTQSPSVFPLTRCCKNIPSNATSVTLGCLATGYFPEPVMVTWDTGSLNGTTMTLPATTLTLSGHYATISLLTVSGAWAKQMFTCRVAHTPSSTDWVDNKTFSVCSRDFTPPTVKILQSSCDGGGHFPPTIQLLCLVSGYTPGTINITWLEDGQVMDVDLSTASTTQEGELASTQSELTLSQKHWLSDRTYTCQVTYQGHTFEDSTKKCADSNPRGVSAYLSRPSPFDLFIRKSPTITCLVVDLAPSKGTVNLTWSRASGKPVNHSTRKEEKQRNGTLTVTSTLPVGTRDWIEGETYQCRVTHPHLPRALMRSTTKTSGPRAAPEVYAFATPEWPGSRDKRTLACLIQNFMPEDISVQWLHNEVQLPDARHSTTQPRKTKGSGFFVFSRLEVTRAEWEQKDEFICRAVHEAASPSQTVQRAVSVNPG

As a reminder, the IC50 is the concentration that inhibits the measured activity by half. As for `Cc1ccc(N2CC3(CCc4sc(NC(=O)C5CC5)c(C(=O)NCC5CC5)c4C3)OC2=O)cc1` (centres unmarked) [Example 61, 2-(Cyclopropanecarbonylamino)-N-(cyclopropylmethyl)-2′-oxo-3′-(p-tolyl)spiro[6,7-dihydro-4H-benzothiophene-5,5′-oxazolidine]-3-carboxamide], the IC50 is less than 1 µM.

Regarding `Nc1ncccc1C1CCc2sc(NC(=O)C3CC3)c(C(=O)NCC3CC3)c2C1` (centres unmarked) [Example 62, 5-(2-Amino-3-pyridyl)-2-(cyclopropanecarbonylamino)-N-(cyclopropylmethyl)-4,5,6,7-tetrahydrobenzothiophene-3-carboxamide], the IC50 is less than 1 µM. For `Cc1ccc(-c2cnc(C3CCc4sc(NC(=O)C5CC5)c(C(=O)NCC5CC5)c4C3)[nH]2)cc1` (centres unmarked) [Example 63, 2-(Cyclopropanecarbonylamino)-N-(cyclopropylmethyl)-5-[5-(p-tolyl)-1H-imidazol-2-yl]-4,5,6,7-tetrahydrobenzothiophene-3-carboxamide], the IC50 was less than 1 µM. Consider `N#CC1CCc2sc(NC(=O)C3CC3)c(C(=O)NCC3CC3)c2C1` (centres unmarked) [Example 64, 5-Cyano-2-(cyclopropanecarbonylamino)-N-(cyclopropylmethyl)-4,5,6,7-tetrahydrobenzothiophene-3-carboxamide], for which the IC50 was 1 to 10 µM. The result for `N#CC1CCCc2c1sc(NC(=O)C1CC1)c2C(=O)NCC1CC1` (centres unmarked) [Example 65, 7-Cyano-2-(cyclopropanecarbonylamino)-N-(cyclopropylmethyl)-4,5,6,7-tetrahydrobenzothiophene-3-carboxamide] reads 1 to 10 µM.

With `O=C(NCC1CC1)c1c(NC(=O)C2CC2)sc2c1C[C@H](C(F)(F)F)CC2` [Example 66, (5R)-2-(Cyclopropanecarbonylamino)-N-(cyclopropylmethyl)-5-(trifluoromethyl)-4,5,6,7-tetrahydrobenzothiophene-3-carboxamide], the IC50 was 1 to 10 µM. As for `O=C(NCC1CC1)c1c(NC(=O)C2CC2)sc2c1C[C@@H](C(F)(F)F)CC2` [Example 67, (5S)-2-(Cyclopropanecarbonylamino)-N-(cyclopropylmethyl)-5-(trifluoromethyl)-4,5,6,7-tetrahydrobenzothiophene-3-carboxamide], the IC50 was less than 1 µM. Turning to `Cc1coc(C2CCc3sc(NC(=O)C4CC4)c(C(=O)NCC4CC4)c3C2)n1` (centres unmarked) [Example 68, 2-(Cyclopropanecarbonylamino)-N-(cyclopropylmethyl)-5-(4-methyloxazol-2-yl)-4,5,6,7-tetrahydrobenzothiophene-3-carboxamide], the 50% inhibitory concentration (IC50) was in the range of 1 to 10 µM. Turning to `NCC1(O)CCc2sc(NC(=O)C3CC3)c(C(=O)NCC3CC3)c2C1` (centres unmarked) [Example 69, 5-(Aminomethyl)-2-(cyclopropanecarbonylamino)-N-(cyclopropylmethyl)-5-hydroxy-6,7-dihydro-4H-benzothiophene-3-carboxamide], the IC50 lay in the range of 10 to 50 µM. With `Cc1ccc(NC(=O)NCC2(O)CCc3sc(NC(=O)C4CC4)c(C(=O)NCC4CC4)c3C2)cc1` (centres unmarked) [Example 70, 2-(Cyclopropanecarbonylamino)-N-(cyclopropylmethyl)-5-hydroxy-5-[(p-tolylcarbamoylamino)methyl]-6,7-dihydro-4H-benzothiophene-3-carboxamide], the half-inhibitory concentration (IC50) fell in the range of 1 to 10 µM. Regarding `Cc1noc(C2CCc3sc(NC(=O)C4CC4)c(C(=O)NCC4CC4)c3C2)n1` (centres unmarked) [Example 71, 2-(Cyclopropanecarbonylamino)-N-(cyclopropylmethyl)-5-(3-methyl-1,2,4-oxadiazol-5-yl)-4,5,6,7-tetrahydrobenzothiophene-3-carboxamide], the half-maximal inhibitory concentration (IC50) fell in the range of 1 to 10 µM.

Consider `Cc1nnc(C2CCc3sc(NC(=O)C4CC4)c(C(=O)NCC4CC4)c3C2)o1` (centres unmarked) [Example 72, 2-(Cyclopropanecarbonylamino)-N-(cyclopropylmethyl)-5-(5-methyl-1,3,4-oxadiazol-2-yl)-4,5,6,7-tetrahydrobenzothiophene-3-carboxamide], for which the IC50 lay in the range of 1 to 10 µM. `O=C(NCC1CC1)c1c(NC(=O)C2CC2)sc2c1CC(C(=O)N1CCCC1)CC2` (centres unmarked) [Example 73, 2-(Cyclopropanecarbonylamino)-N-(cyclopropylmethyl)-5-(pyrrolidine-1-carbonyl)-4,5,6,7-tetrahydrobenzothiophene-3-carboxamide]: the IC50 is 1 to 10 µM. For `CC1(O)CCc2sc(NC(=O)C3CC3)c(C(=O)NCC3CC3)c2C1` (centres unmarked) [Example 74, 2-(Cyclopropanecarbonylamino)-N-(cyclopropylmethyl)-5-hydroxy-5-methyl-6,7-dihydro-4H-benzothiophene-3-carboxamide], the IC50 was in the range of 10 to 50 µM. On to `O=C(Nc1sc2c(c1C(=O)N1CC[C@@H](F)C1)CCCC2)C1CC1` [Example 75, N-[3-[(3R)-3-Fluoropyrrolidine-1-carbonyl]-4,5,6,7-tetrahydrobenzothiophen-2-yl]cyclopropanecarboxamide], for which the half-maximal inhibitory concentration (IC50) lay in the range of 1 to 10 µM. `O=C(Nc1sc2c(c1C(=O)N1CC(F)C1)CCCC2)C1CC1` [Example 76, N-[3-(3-Fluoroazetidine-1-carbonyl)-4,5,6,7-tetrahydrobenzothiophen-2-yl]cyclopropanecarboxamide]: the IC50 lay in the range of 1 to 10 µM. The result for `COC1CN(C(=O)c2c(NC(=O)C3CC3)sc3c2CCCC3)C1` [Example 77] reads 1 to 10 µM. For the molecule `O=C(Nc1sc2c(c1C(=O)N1CCCCC1)CCCC2)C1CC1` [Example 78, N-[3-(Piperidine-1-carbonyl)-4,5,6,7-tetrahydrobenzothiophen-2-yl]cyclopropanecarboxamide], the IC50 fell in the range of 1 to 10 µM. The result for `CNC(=O)c1c(NC(=O)C2CC2)sc2c1CCCC2O` (centres unmarked) [Example 79, 2-(Cyclopropanecarbonylamino)-7-hydroxy-N-methyl-4,5,6,7-tetrahydrobenzothiophene-3-carboxamide] reads 10 to 50 µM.

Turning to `CC1Cc2c(sc(NC(=O)C3CC3)c2C(=O)NCC2CC2)C(C)C1` (centres unmarked) [Example 81, 2-(Cyclopropanecarbonylamino)-N-(cyclopropylmethyl)-5,7-dimethyl-4,5,6,7-tetrahydrobenzothiophene-3-carboxamide], the IC50 was in the range of 1 to 10 µM. The result for `CC1CCc2sc(NC(=O)C3CC3)c(C(=O)NCC3CC3)c2C1` (centres unmarked) [Example 82, 2-(Cyclopropanecarbonylamino)-N-(cyclopropylmethyl)-5-methyl-4,5,6,7-tetrahydrobenzothiophene-3-carboxamide] reads 1 to 10 µM; that for `CC1(C)CCc2sc(NC(=O)C3CC3)c(C(=O)NCC3CC3)c2C1` [Example 84, 2-(Cyclopropanecarbonylamino)-N-(cyclopropylmethyl)-5,5-dimethyl-6,7-dihydro-4H-benzothiophene-3-carboxamide], 1 to 10 µM.

As to `CC1CC(=O)c2sc(NC(=O)C3CC3)c(C(=O)NCC3CC3)c2C1` (centres unmarked) [Example 85, 2-(Cyclopropanecarbonylamino)-N-(cyclopropylmethyl)-5-methyl-7-oxo-5,6-dihydro-4H-benzothiophene-3-carboxamide], the IC50 was 1 to 10 µM. As for `O=C(NCC1CC1)c1c(NC(=O)C2CC2)sc2c1CC1(CC2)OCCO1` [Example 86, 2′-(Cyclopropanecarbonylamino)-N-(cyclopropylmethyl)spiro[1,3-dioxolane-2,5′-6,7-dihydro-4H-benzothiophene]-3′-carboxamide], the IC50 was less than 1 µM. Turning to `CC(C)C(=O)Nc1sc2c(c1C(=O)NCC1CC1)CCCC2` [Example 87, N-(Cyclopropylmethyl)-2-(2-methylpropanoylamino)-4,5,6,7-tetrahydrobenzothiophene-3-carboxamide], the IC50 fell in the range of 10 to 50 µM. The result for `O=C(NCC1CC1)c1c(NC(=O)C2CCC2)sc2c1CCCC2` [Example 88, 2-(Cyclobutanecarbonylamino)-N-(cyclopropylmethyl)-4,5,6,7-tetrahydrobenzothiophene-3-carboxamide] reads 10 to 50 µM; that for `CC1CCc2sc(NC(=O)C3CC3)c(C(=O)NCC3CC3)c2C1C` (centres unmarked) [Example 89, 2-(Cyclopropanecarbonylamino)-N-(cyclopropylmethyl)-4,5-dimethyl-4,5,6,7-tetrahydrobenzothiophene-3-carboxamide], 1 to 10 µM. Turning to `O=C1NC(=O)C2(CCc3sc(NC(=O)C4CC4)c(C(=O)NCC4CC4)c3C2)N1` (centres unmarked) [Example 92, 2-(Cyclopropanecarbonylamino)-N-(cyclopropylmethyl)-2′,5′-dioxo-spiro[6,7-dihydro-4H-benzothiophene-5,4′-imidazolidine]-3-carboxamide], the IC50 fell in the range of 1 to 10 µM.

With `O=C(OCC1CC1)c1c(NC(=O)C2CC2)sc2c1CC(NC(=S)Nc1cccnc1)CC2` (centres unmarked) [Example 93, Cyclopropylmethyl 2-(cyclopropanecarbonylamino)-5-(3-pyridylcarbamothioylamino)-4,5,6,7-tetrahydrobenzothiophene-3-carboxylate], the IC50 was in the range of 1 to 10 µM. The result for `O=C(OCC1CC1)c1c(NC(=O)C2CC2)sc2c1CC(n1cnnc1Nc1cccnc1)CC2` (centres unmarked) [Example 94, Cyclopropylmethyl 2-(cyclopropanecarbonylamino)-5-[3-(3-pyridylamino)-1,2,4-triazol-4-yl]-4,5,6,7-tetrahydrobenzothiophene-3-carboxylate] reads less than 1 µM; that for `CC(C)(C)OC(=O)NC1CCCc2c1sc(NC(=O)C1CC1)c2C(=O)NCC1CC1` (centres unmarked) [Example 97, tert-Butyl N-[2-(cyclopropanecarbonylamino)-3-(cyclopropylmethylcarbamoyl)-4,5,6,7-tetrahydrobenzothiophen-7-yl]carbamate], 1 to 10 µM.

Take `CCNC(=O)C1CCCc2c1sc(NC(=O)C1CC1)c2C(=O)NCC1CC1` (centres unmarked) [Example 98, 2-(Cyclopropanecarbonylamino)-N3-(cyclopropylmethyl)-N7-ethyl-4,5,6,7-tetrahydrobenzothiophene-3,7-dicarboxamide]: the IC50 lay in the range of 10 to 50 µM.
